From the NIST ThermoML archive (doi:10.1021/je700339f)
± gives the expanded uncertainty stated by the source.

Assay: xn = mol fraction of the nth substance listed
Settings: 298 K, Liquid

ClCCCl [1,2-dichloroethane] + CC(=O)N(C)C
mass density [kg/m3]
Settings | 15000 kPa | 15500 kPa | 15900 kPa | 16000 kPa | 16400 kPa | 16500 kPa | 16900 kPa | 17000 kPa | 17500 kPa
x2 = 0.0977 | – | 1223.7 ± 7.4 | – | 1224.1 ± 7.4 | 1224.5 ± 7.4 | – | – | 1224.9 ± 7.4 | 1225.4 ± 7.4
x2 = 0.2003 | – | 1187.4 ± 7.3 | – | 1187.8 ± 7.3 | – | 1188.2 ± 7.3 | – | 1188.6 ± 7.3 | 1189.2 ± 7.3
x2 = 0.2988 | – | 1153.8 ± 7 | – | 1154.2 ± 7 | – | 1154.6 ± 7 | – | 1155 ± 7 | 1155.3 ± 7.1
x2 = 0.4022 | – | 1119.8 ± 6.8 | 1120.1 ± 6.8 | – | – | 1120.5 ± 6.8 | – | 1120.9 ± 6.8 | 1121.3 ± 6.8
x2 = 0.4999 | – | 1088.7 ± 6.6 | – | 1089.1 ± 6.6 | – | 1089.4 ± 6.6 | – | 1089.8 ± 6.6 | 1090.1 ± 6.6
x2 = 0.6007 | – | 1057.8 ± 6.3 | – | 1058.1 ± 6.4 | – | 1058.4 ± 6.4 | – | 1058.8 ± 6.4 | 1059.2 ± 6.4
x2 = 0.7008 | 1028 ± 6.2 | 1028.4 ± 6.1 | – | 1028.7 ± 6.2 | – | 1029 ± 6.1 | 1029.3 ± 6.2 | – | 1029.7 ± 6.2
x2 = 0.7988 | 1000 ± 6 | 1000.4 ± 6 | – | 1000.6 ± 6 | – | 1001 ± 6 | – | 1001.3 ± 6 | –
x2 = 0.8997 | 972.3 ± 5.9 | 972.6 ± 5.9 | – | 972.9 ± 5.9 | – | 973.2 ± 5.9 | – | 973.4 ± 5.9 | –
